Test results as given in US10479766B2, “Deuterated CFTR potentiators” (Vertex Pharmaceuticals (Europe) Limited, priority 2011, dated 2019).
“And” between values parts separate entries of the source, which are not always exact repeats. Equal entries are not always repeated. Where two headings read alike, the source gives them in different places.

Legend:
[1] = Pharmacokinetics in rats after oral gavage; type: in vivo; settings: rat, PO 10 mg/kg in 100% PEG400, plasma; for half-life: plasma, po, 10 mg/kg
Experimental: Ivacaftor, compound 105 and compound 106 were discrete dosed to rats via oral gavage (PO). Each compound was administered at a dose of 10 mg/kg to three rats (N=3 rats/compound; total of 9 rats in the study). […] Blood samples were centrifuged to obtain plasma. Plasma samples were analyzed for concentrations of the dosed compound at each time point using LC-MS/MS. The limit of quantitation of each compound was 1 ng/mL.

[2] = test system: patients with cystic fibrosis carrying at least one copy of the G551D-CFTR mutation; settings: phase III trials; cited from earlier work
[3] = individual animals, read-out: t1/2 (hr), individual animal (converted)
[4] = mean of N=3 rats, read-out: t1/2 (hr), Mean (converted)

| Structure (SMILES) | t1/2 (hr), individual animal ([1]; individual animals) | half-life [1, 3] [h] | half-life [1, 4] [h] | lung function and other key indicators of the disease (sweat chloride levels, likelihood of pulmonary exacerbations, body weight) [2] |
| --- | --- | --- | --- | --- |
| [2H]C([2H])([2H])C(c1cc(C(C)(C)C)c(NC(=O)c2c[nH]c3ccccc3c2=O)cc1O)(C([2H])([2H])[2H])C([2H])([2H])[2H] [Compound 106, N-(2-(tert-Butyl)-4-(tert-butyl-d9)-5-hydroxyphenyl)-4-oxo-1,4-dihydroquinoline-3-carboxamide] | 14.28 h and 11.92 h | 13.5 | 13.2 |  |
| CC(C)(C)c1cc(C(C)(C)C)c(NC(=O)c2c[nH]c3ccccc3c2=O)cc1O [Ivacaftor, N-(2,4-di-tert-butyl-5-hydroxyphenyl)-4-oxo-1,4-dihydroquinoline-3-carboxamide, reference compound] | 12.43 h and 10.01 h | 9.03 | 10.5 | marked levels of improvement |
| [2H]C([2H])([2H])C(c1cc(C(C([2H])([2H])[2H])(C([2H])([2H])[2H])C([2H])([2H])[2H])c(NC(=O)c2c[nH]c3ccccc3c2=O)cc1O)(C([2H])([2H])[2H])C([2H])([2H])[2H] [Compound 105, N-(2,4-Di-(tert-butyl-d9)-5-hydroxyphenyl)-4-oxo-1,4-dihydroquinoline-3-carboxamide] | 16.33 h and 14.39 h | 13.8 | 14.8 |  |
